From patent US20130005034A1, “ARTIFICIAL PEPTIDE AND USE THEREOF” (TOAGOSEI CO., LTD, priority 2008, published 2013)
Where no end group is shown, it is not given here.

What was measured:
[1] = system: neural stem cells collected from a rat; details: peptide 1 μM in culture broth, 24 hours
Experimental: That is, these sample peptides were added to a culture broth of neural stem cells collected from a rat, and incubated. The amount of peptide added was adjusted so that the peptide concentration within the culture broth became 1 μM for each peptide.
In addition, the same sample was subjected to evaluation with a neuronal differentiation induction marker. That is, using tubulin as a marker for identifying neurons, the presence or absence of tubulin (i.e., of neurons) in the culture broth was determined by a fluorescent antibody method that uses a fluorescent dye-labeled anti-tubulin antibody for identifying this tubulin. In addition, using glial fibrillary acidic protein (GFAP), which is a cytoskeletal protein in glial cells, as a marker for identifying glial cells, the presence or absence of GFAP (i.e., of glial cells) in the culture broth was determined by a fluorescent antibody method that uses a fluorescent dye-labeled anti-GFAP antibody for identifying this GFAP.

[2] = system: human iPS cells (cell line: 201B2); assay: iPS cell membrane permeability of FITC-labeled peptides (FITC fluorescence intensity, confocal laser scanning microscopy); type: cell-based; details: 1 hour; for Relative Intensity (FITC fluorescence): relative to Comparative Sample 2 at 0.5 μM = 1, average of five measurements; for introduction into artificial pluripotent stem cells: 0.5 μM or 1 μM
Experimental: Next, the abilities of the three resulting synthesized peptides to pass through the cell membranes of artificial pluripotent stem cells (iPS cells) were investigated. Fluorescein isothiocyanate (FITC) was added beforehand to the N-terminus of each of the synthesized peptides.
The human iPS cells (cell line: 201B2) used in this example were procured from Kyoto University. The mouse embryo fibroblasts (cell line: SNL76/7) used as feeder cells were procured from ECACC, which supply the cells on commission from Dr. Allan Bradley.
The iPS cells thus acquired were cultured, using a human embryonic stem cell culture medium (DMEM/F12, containing 20% knockout serum replacement (KSR), 2 mM L-glutamine, 0.1 mM non-essential amino acids, 0.1 mM 2-mercaptoethanol, 50 units/50 μg/ml penicillin/streptomycin, and 4 ng/ml bFGF), in a 37° C., 5% CO2 environment on a gelatin-coated dish seeded with the above SNL feeder cells that had been mitomycin C-treated.
The cultured iPS cells were then treated with a CTK solution (containing 1 mg/ml collagenase IV, […], […] and 20% KSR), and recovered. Next, a suspension of microaggregates was prepared by pipetting, dispensed into each well of a commercial gelatin-coated 4-well chamber (culture) slide that had been seeded with mitomycin C-treated SNL feeder cells, and cultured in a 37° C., 5% CO2 environment for about 6 days.
The culture solution in each well was then replaced with a cell culture obtained by adding a peptide stock solution (1 mM) of any one of the above Sample 6 and Comparative Samples 1 and 2 that had been pre-labeled with FITC to a specified concentration (i.e., to a final concentration within the medium of 0.5 μM or 1 μM), and the cell culture was cultured for 1 hour in a 37° C., 5% CO2 environment.
Next, after washing with PBS, the cells within the wells were fixed with cold methanol, and were encapsulated using a DAPI-containing antifade reagent (Invitrogen).
Localization of the FITC-labeled peptides was confirmed using a confocal laser scanning microscope. Specifically, the FITC fluorescence intensity in each test group (the respective encapsulated samples to be measured) was measured by confocal laser scanning microscopic analysis. The measurement conditions were as follows.
Argon laser excitation wavelength: 488 nm
Objective lens: Plan-Apochromat 20×/0.75
The relative fluorescence intensity of each test group was calculated relative to a value of 1 for the fluorescence intensity of the test group in which Comparative Sample 2 was added to a final concentration within the culture medium of 0.5 μM. Measurement was independently carried out five times, and the average value of the five measurements was treated as the fluorescence intensity. In addition, micrographs obtained using a confocal laser scanning microscope to observe iPS cell cultures to which Sample 6 or Comparative Sample 2 was added to a final concentration of 1 μM (the above encapsulated test groups) are shown respectively in FIG. 7 (Sample 6 addition group) and FIG. 8 (Comparative Sample 2 addition group).

| Substance | differentiation to glial cells (GFAP marker) [1] | neuronal differentiation (differentiation from neural stem cells to neurons, tubulin marker) [1] | Relative Intensity (FITC fluorescence) ([2]; 0.5 μM final concentration) | introduction into artificial pluripotent stem cells [2] | Relative Intensity (FITC fluorescence) ([2]; 1.0 μM final concentration) |
| --- | --- | --- | --- | --- | --- |
| KKRTLRKNDRKKR [Comparative Sample 1] | not observed | not observed | – | – | – |
| RRRRRRRRRGTLKERCLQVVRSLVK [Comparative Sample 3, VHL peptide linked through a single glycine residue to the C-terminal end of polyarginine R9] | – | – | <1 | substantially not introduced | 2.8 |
| SLQYLCRFVIRQYTRKKRTLRKNDRKKR-NH2 [Sample 2, SLQYLCRFVIRQYTR-KKRTLRKNDRKKR] | not observed | – | – | – | – |
| TLKERCLQVVRSLVKKKRTLRKNDRKKR [Sample 6] | – | – | 13.5 | – | 23.2 |
| TLKERCLQVVRSLVKSRRHHCRSKAKRSRHH [Comparative Sample 2, VHL peptide linked to the N-terminal end of hPER1-NLS] | – | – | 1 | substantially not introduced | 4.8 |
